Reference: the NIST ThermoML archive (doi:10.1016/j.jct.2012.04.018)
Values joined by “and” are separate entries in the source; they are usually repeats but may differ in a detail not shown here. Identical values can stand only once.

Key:
[1] = heat capacity at constant pressure per volume; xn = mol fraction of the nth substance listed; conditions: 101 kPa, Liquid, DSC, calvet, x2 = 0.44
[2] = refractive index (other wavelength) (dimensionless); xn = mol fraction of the nth substance listed; conditions: 290.9 K, 101 kPa, Liquid, Wavelength=632.8 nm, He-Ne laser

N#Cc1ccccc1 [benzonitrile] + CCCCCCCCCCC
Conditions | heat capacity | refractive index
[1], 286.54 K | 1846500 J/K/m3 | –
[1], 286.76 K | 1854000 J/K/m3 | –
[1], 286.99 K | 1862200 J/K/m3 | –
[1], 287.22 K | 1857300 J/K/m3 | –
[1], 287.45 K | 1862800 J/K/m3 | –
[1], 287.68 K | 1867600 J/K/m3 | –
[1], 287.91 K | 1870300 J/K/m3 | –
[1], 288.14 K | 1878500 J/K/m3 | –
[1], 288.37 K | 1879100 J/K/m3 | –
[1], 288.6 K | 1887700 J/K/m3 | –
[1], 288.83 K | 1896600 J/K/m3 | –
[1], 288.94 K | 1895600 J/K/m3 | –
[1], 289.06 K | 1899000 J/K/m3 | –
[1], 289.17 K | 1913500 J/K/m3 | –
[1], 289.29 K | 1889000 J/K/m3 | –
[1], 289.4 K | 1931900 J/K/m3 | –
[1], 289.43 K | 1910800 J/K/m3 | –
[1], 289.46 K | 1918000 J/K/m3 | –
[1], 289.5 K | 1946800 J/K/m3 | –
[1], 289.53 K | 1960500 J/K/m3 | –
[1], 289.56 K | 1952300 J/K/m3 | –
[1], 289.6 K | 1953700 J/K/m3 | –
[1], 289.63 K | 1973800 J/K/m3 | –
[1], 289.67 K | 1984300 J/K/m3 | –
[1], 289.7 K | 1990700 J/K/m3 | –
[1], 289.74 K | 1995400 J/K/m3 | –
[1], 289.75 K | 2003100 J/K/m3 | –
[1], 289.77 K | 2011400 J/K/m3 | –
[1], 289.78 K | 2022500 J/K/m3 | –
[1], 289.79 K | 2035800 J/K/m3 | –
[1], 289.8 K | 2046300 J/K/m3 | –
[1], 289.81 K | 2053900 J/K/m3 | –
[1], 289.82 K | 2063600 J/K/m3 | –
[1], 289.83 K | 2084100 J/K/m3 | –
[1], 289.85 K | 2111800 J/K/m3 | –
[1], 289.86 K | 2155800 J/K/m3 and 2141800 J/K/m3 and 2104500 J/K/m3 | –
[1], 289.87 K | 2067700 J/K/m3 and 2029900 J/K/m3 and 1997600 J/K/m3 | –
[1], 289.88 K | 1943900 J/K/m3 and 1858200 J/K/m3 | –
[1], 289.89 K | 1823500 J/K/m3 | –
[1], 289.9 K | 1809500 J/K/m3 | –
[1], 289.92 K | 1795800 J/K/m3 | –
[1], 289.93 K | 1786900 J/K/m3 | –
[1], 289.94 K | 1780500 J/K/m3 | –
[1], 289.95 K | 1778700 J/K/m3 | –
[1], 289.98 K | 1770500 J/K/m3 | –
[1], 290.01 K | 1757500 J/K/m3 | –
[1], 290.04 K | 1756200 J/K/m3 | –
[1], 290.06 K | 1746900 J/K/m3 | –
[1], 290.09 K | 1748200 J/K/m3 | –
[1], 290.12 K | 1747000 J/K/m3 | –
[1], 290.15 K | 1739100 J/K/m3 | –
[1], 290.18 K | 1736600 J/K/m3 | –
[1], 290.21 K | 1740600 J/K/m3 | –
[1], 290.24 K | 1732400 J/K/m3 | –
[1], 290.27 K | 1728300 J/K/m3 | –
[1], 290.44 K | 1721500 J/K/m3 | –
[1], 290.64 K | 1711900 J/K/m3 | –
[1], 290.84 K | 1707300 J/K/m3 | –
[1], 291.04 K | 1702300 J/K/m3 | –
[1], 291.24 K | 1698500 J/K/m3 | –
[1], 291.44 K | 1694500 J/K/m3 | –
[1], 291.64 K | 1693500 J/K/m3 | –
[1], 291.85 K | 1691400 J/K/m3 | –
[1], 292.05 K | 1688200 J/K/m3 | –
[1], 292.25 K | 1688500 J/K/m3 | –
[1], 292.45 K | 1685900 J/K/m3 | –
[1], 292.65 K | 1684300 J/K/m3 | –
[1], 292.85 K | 1683400 J/K/m3 | –
[1], 293.19 K | 1682100 J/K/m3 | –
[1], 293.43 K | 1680500 J/K/m3 | –
[1], 293.65 K | 1678500 J/K/m3 | –
[1], 293.88 K | 1679000 J/K/m3 | –
[1], 294.11 K | 1678400 J/K/m3 | –
[1], 294.34 K | 1676100 J/K/m3 | –
[1], 294.57 K | 1675700 J/K/m3 | –
[1], 294.8 K | 1675100 J/K/m3 | –
[1], 295.11 K | 1673900 J/K/m3 | –
[1], 295.85 K | 1672100 J/K/m3 | –
[1], 296.59 K | 1670800 J/K/m3 | –
[1], 297.34 K | 1670100 J/K/m3 | –
[1], 298.08 K | 1669100 J/K/m3 | –
[1], 298.82 K | 1667900 J/K/m3 | –
[1], 299.57 K | 1667300 J/K/m3 | –
[1], 300.31 K | 1667200 J/K/m3 | –
[1], 301.05 K | 1666300 J/K/m3 | –
[1], 301.8 K | 1666200 J/K/m3 | –
[1], 302.54 K | 1665900 J/K/m3 | –
[1], 303.29 K | 1665200 J/K/m3 | –
[1], 304.03 K | 1665100 J/K/m3 | –
[1], 304.77 K | 1665400 J/K/m3 | –
[1], 305.52 K | 1665600 J/K/m3 | –
[1], 306.26 K | 1665000 J/K/m3 | –
[1], 307 K | 1664800 J/K/m3 | –
[1], 307.75 K | 1665500 J/K/m3 | –
[1], 308.49 K | 1665600 J/K/m3 | –
[1], 309.23 K | 1665400 J/K/m3 | –
[1], 309.98 K | 1665500 J/K/m3 | –
[1], 310.72 K | 1665900 J/K/m3 | –
[1], 311.46 K | 1666400 J/K/m3 | –
[1], 312.21 K | 1666000 J/K/m3 | –
[1], 312.95 K | 1665700 J/K/m3 | –
[1], 313.69 K | 1666100 J/K/m3 | –
[1], 314.44 K | 1667100 J/K/m3 | –
[1], 315.18 K | 1666800 J/K/m3 | –
[1], 315.92 K | 1667700 J/K/m3 | –
[1], 316.67 K | 1668100 J/K/m3 | –
[1], 317.41 K | 1667700 J/K/m3 | –
[1], 318.15 K | 1667700 J/K/m3 | –
[1], 318.9 K | 1668700 J/K/m3 | –
[1], 319.64 K | 1667900 J/K/m3 | –
[1], 320.69 K | 1668700 J/K/m3 | –
[1], 321.75 K | 1669700 J/K/m3 | –
[1], 322.8 K | 1669700 J/K/m3 | –
[1], 323.86 K | 1670100 J/K/m3 | –
[1], 324.91 K | 1671400 J/K/m3 | –
[2], x2 = 0.133 | – | 1.5005
[2], x2 = 0.212 | – | 1.4877
[2], x2 = 0.336 | – | 1.4708
[2], x2 = 0.42 | – | 1.4607
[2], x2 = 0.512 | – | 1.4513
[2], x2 = 0.606 | – | 1.443
[2], x2 = 0.704 | – | 1.4351
[2], x2 = 0.799 | – | 1.4285
[2], x2 = 0.902 | – | 1.4222
